Measurements: ChEMBL document CHEMBL1201862, “PubChem BioAssay data set” (2004)
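Step 1: Grow cells in 96-well plates. Step 2: Expose to compound for 48 hours at 5 concentrations. Step 3: Interpolate endpoints linearly; if unreached, use highest concentration. GI50 marks 50% less growth.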 The source made the active and inactive calls. Rule as the data show it: active = GI50 up to about 1.1 µM and inactive = higher.

Experiments:
Experiment in all cases: NCI anticancer screen, dose series, 48 h
SF-539 = test system: SF-539
BT-549 = test system: BT-549
CCRF-CEM = test system: CCRF-CEM
UACC-257 = test system: UACC-257
SF-295 = test system: SF-295
T47D = test system: T47D
DU-145 = test system: DU-145
SR = test system: SR
SNB-75 = test system: SNB-75
HOP-92 = test system: HOP-92
HCT-15 = test system: HCT-15
PC-3 = test system: PC-3
HCT-116 = test system: HCT-116
UO-31 = test system: UO-31
SW-620 = test system: SW-620
U-251 = test system: U-251
NCI/ADR-RES = test system: NCI/ADR-RES
OVCAR-4 = test system: OVCAR-4
SF-268 = test system: SF-268
SNB-19 = test system: SNB-19

Row | SMILES | GI50 (SF-539) | GI50 (BT-549) | GI50 (CCRF-CEM) | GI50 (UACC-257) | GI50 (SF-295) | GI50 (T47D) | GI50 (DU-145) | GI50 (SR) | GI50 (SNB-75) | GI50 (HOP-92) | GI50 (HCT-15) [µM] | GI50 (PC-3) | GI50 (HCT-116) | GI50 (UO-31) | GI50 (SW-620) | GI50 (U-251) | GI50 (NCI/ADR-RES) | GI50 (OVCAR-4) | GI50 (SF-268) | GI50 (SNB-19)
1 | O=c1oc2ccc3ccccc3c2cc1-c1nc2ccccc2o1 | 15.8 µM (inactive) | 31.3 µM (inactive) | 37.7 µM (inactive) | > 49.9 µM (inactive) | 26.2 µM (inactive) | 3.17 µM (inactive) | 20.7 µM (inactive) | 16.2 µM (inactive) | 17.5 µM (inactive) | 16.4 µM (inactive) | 36.6 | 28.1 µM (inactive) | 21.7 µM (inactive) | 30.9 µM (inactive) | 21.8 µM (inactive) | 22.2 µM (inactive) | 20 µM (inactive) | 21 µM (inactive) | 22.1 µM (inactive) | 19.7 µM (inactive)
2 | O=C1C=CC(=NNc2ccccc2)C=CC1=O | 16 µM (inactive) | 19.4 µM (inactive) |  | 18.8 µM (inactive) | 6.85 µM (inactive) | 10.2 µM (inactive) | 18 µM (inactive) | 1.72 µM (inactive) | 16.3 µM (inactive) | 17.5 µM (inactive) | 5.83 | 8.67 µM (inactive) | 13.3 µM (inactive) | 17.8 µM (inactive) | 6.58 µM (inactive) | 7.71 µM (inactive) | 11.6 µM (inactive) | 7.46 µM (inactive) | 16.3 µM (inactive) | 18.9 µM (inactive)
3 | ClCc1nc2ccccc2[nH]1 | > 100 µM (inactive) | 42.8 µM (inactive) | > 100 µM (inactive) | > 100 µM (inactive) | > 100 µM (inactive) | > 100 µM (inactive) | > 100 µM (inactive) | 56 µM (inactive) | 66.8 µM (inactive) | > 100 µM (inactive) | > 100 | > 100 µM (inactive) | > 100 µM (inactive) | > 100 µM (inactive) | > 100 µM (inactive) | > 100 µM (inactive) | > 100 µM (inactive) | > 100 µM (inactive) | > 100 µM (inactive) | > 100 µM (inactive)
4 | COc1cc2c(cc1O)NC(=S)[C@@H]1CCCN1C2=O | > 100 µM (inactive) | > 100 µM (inactive) | 76.6 µM (inactive) | > 100 µM (inactive) | 97.1 µM (inactive) | > 100 µM (inactive) | > 100 µM (inactive) | 50.1 µM (inactive) | > 100 µM (inactive) | > 100 µM (inactive) | > 100 | > 100 µM (inactive) | > 100 µM (inactive) | > 100 µM (inactive) | > 100 µM (inactive) | > 100 µM (inactive) | > 100 µM (inactive) | > 100 µM (inactive) | > 100 µM (inactive) | > 100 µM (inactive)
5 | C=C1CC(Cn2ccc(=O)[nH]c2=O)(c2ccc(OC)cc2)OC1=O (configuration not stated) | 18.6 µM (inactive) | 12.2 µM (inactive) | 2.88 µM (inactive) | 14.8 µM (inactive) | 34.7 µM (inactive) | 16.3 µM (inactive) | 17.4 µM (inactive) | 2.9 µM (inactive) | > 10 µM (inactive) | 2.34 µM (inactive) | 14.8 | 16 µM (inactive) | 6.15 µM (inactive) | 17.2 µM (inactive) | 3.7 µM (inactive) | 22.3 µM (inactive) | 16 µM (inactive) | 16.8 µM (inactive) | 23.9 µM (inactive) | > 68.4 µM (inactive)
6 | CN(CCNC(=O)c1cc(-c2ccccc2)nc2ccccc12)CCNC(=O)c1cc(-c2ccccc2)nc2ccccc12 | 7.71 µM (inactive) | > 100 µM (inactive) | 4.69 µM (inactive) | 3.05 µM (inactive) | 13.2 µM (inactive) | > 30.5 µM (inactive) | 12.5 µM (inactive) | 2.98 µM (inactive) | 7.53 µM (inactive) | 2.61 µM (inactive) | > 80.5 | 10.3 µM (inactive) | 8.05 µM (inactive) | 7.1 µM (inactive) | 6.12 µM (inactive) | 8.75 µM (inactive) | > 100 µM (inactive) |  | 8.51 µM (inactive) | > 60 µM (inactive)
7 | CC(C)=CCNc1ncnc2c1ncn2CCC(=O)OC(C)(C)C | > 100 µM (inactive) | 37.5 µM (inactive) | 22 µM (inactive) |  | > 100 µM (inactive) | 24.8 µM (inactive) | > 100 µM (inactive) | 52.2 µM (inactive) | 13 µM (inactive) | 49.7 µM (inactive) | > 100 | 34.8 µM (inactive) | > 100 µM (inactive) | 22.7 µM (inactive) | > 100 µM (inactive) | 63.8 µM (inactive) | 42.9 µM (inactive) | 4.81 µM (inactive) | > 100 µM (inactive) | > 100 µM (inactive)
8 | Cc1cn(Cc2cccc(C3=NCCCN3)c2)c(=O)n(Cc2cccc(C3=NCCCN3)c2)c1=O |  | > 100 µM (inactive) | > 100 µM (inactive) | > 100 µM (inactive) | > 100 µM (inactive) | > 100 µM (inactive) | > 100 µM (inactive) | > 100 µM (inactive) | 83.6 µM (inactive) | > 100 µM (inactive) | > 100 | > 100 µM (inactive) | > 100 µM (inactive) | > 100 µM (inactive) | > 100 µM (inactive) | > 100 µM (inactive) | > 100 µM (inactive) | > 100 µM (inactive) | > 100 µM (inactive) | > 100 µM (inactive)
9 | O=C1C=CC(=O)c2c1ccc1c3ccccc3n(Cc3ccccc3)c21 | 38.4 µM (inactive) | 20.4 µM (inactive) | 1.8 µM (inactive) | 19 µM (inactive) | > 100 µM (inactive) | 25.1 µM (inactive) | > 80.4 µM (inactive) | 10.9 µM (inactive) | > 82.8 µM (inactive) | > 10 µM (inactive) | 21.9 | 21.8 µM (inactive) | 19.1 µM (inactive) | 20.2 µM (inactive) | 7.21 µM (inactive) | 51.9 µM (inactive) | 42.2 µM (inactive) | 13.3 µM (inactive) | 32.1 µM (inactive) | > 100 µM (inactive)
10 | O=C(/C=C1\Nc2ccc([N+](=O)[O-])cc2N\C1=C/C(=O)c1ccc(F)cc1)c1ccc(F)cc1 | 19.6 µM (inactive) | 31.1 µM (inactive) | 8.81 µM (inactive) | > 100 µM (inactive) | 14.9 µM (inactive) | 82.8 µM (inactive) | > 100 µM (inactive) | 16.8 µM (inactive) | 15.7 µM (inactive) | 35.1 µM (inactive) | 64.7 | > 100 µM (inactive) | 32.5 µM (inactive) | > 100 µM (inactive) | > 100 µM (inactive) | 10.2 µM (inactive) | 82 µM (inactive) | > 100 µM (inactive) | 9.71 µM (inactive) | 23.1 µM (inactive)
11 | O=C1CCC2(O)C3Cc4ccc(Oc5nnnn5-c5ccccc5)c5c4C2(CCN3CC2CC2)C1O5 (configuration not stated) |  | 96.2 µM (inactive) | 18.6 µM (inactive) | 28.2 µM (inactive) | 70 µM (inactive) | 39.5 µM (inactive) | > 100 µM (inactive) | 15.6 µM (inactive) | > 100 µM (inactive) | 50.2 µM (inactive) | 35.5 | 67 µM (inactive) | 43.6 µM (inactive) | 24.2 µM (inactive) | 33.7 µM (inactive) | 33.4 µM (inactive) | 86.7 µM (inactive) | 79.6 µM (inactive) | 34.7 µM (inactive) | 95.7 µM (inactive)
12 | NC(=O)CC(N)c1nnn[nH]1 (configuration not stated) | > 100 µM (inactive) | > 100 µM (inactive) | > 100 µM (inactive) | > 100 µM (inactive) | > 100 µM (inactive) | > 100 µM (inactive) | > 100 µM (inactive) | > 100 µM (inactive) | > 100 µM (inactive) | > 100 µM (inactive) | > 100 | > 100 µM (inactive) | > 100 µM (inactive) | > 100 µM (inactive) | > 100 µM (inactive) | > 100 µM (inactive) | > 100 µM (inactive) | > 100 µM (inactive) | > 100 µM (inactive) | > 100 µM (inactive)
13 | O=S(=O)(O)CCCC1S(=O)(=O)OCCOS1(=O)=O | > 100 µM (inactive) | > 100 µM (inactive) |  | > 100 µM (inactive) | > 100 µM (inactive) | > 100 µM (inactive) | > 100 µM (inactive) | > 100 µM (inactive) | 0.745 µM (active) | > 100 µM (inactive) | > 100 | > 100 µM (inactive) | > 100 µM (inactive) | > 100 µM (inactive) | > 100 µM (inactive) | > 100 µM (inactive) | > 100 µM (inactive) | > 100 µM (inactive) | > 100 µM (inactive) | > 100 µM (inactive)
14 | FC(F)(F)c1ccc2c(c1)nc(-c1ccccc1)n2CC1CCCN2CCCCC12 (configuration not stated) | 16.4 µM (inactive) | 16.7 µM (inactive) |  | 15.9 µM (inactive) | 15.1 µM (inactive) | 20 µM (inactive) | 27 µM (inactive) | 17.6 µM (inactive) | 19.3 µM (inactive) | 18.8 µM (inactive) | 21.9 | 15.3 µM (inactive) | 16.4 µM (inactive) | 0.27 µM (active) | 28.1 µM (inactive) | 20.3 µM (inactive) | 16.3 µM (inactive) | 34.8 µM (inactive) | 15.6 µM (inactive) | 34.8 µM (inactive)
15 | O=[N+]([O-])c1cc(-[n+]2cc([O-])on2)ccc1F |  | 16.1 µM (inactive) | 11.8 µM (inactive) | 16.8 µM (inactive) | 17.3 µM (inactive) | 2.49 µM (inactive) | 12.8 µM (inactive) | 6.24 µM (inactive) | 13.7 µM (inactive) | 16.9 µM (inactive) | 20.3 | 18.4 µM (inactive) | 15.3 µM (inactive) | 3.58 µM (inactive) | 18.4 µM (inactive) | 18.1 µM (inactive) | 21.2 µM (inactive) | 11.9 µM (inactive) | 14.8 µM (inactive) | 7.82 µM (inactive)
